Laboratory results as given in ChEMBL document CHEMBL1152653, “5-Nitrofuranes and 5-nitrothiophenes with anti-Trypanosoma cruzi activity and ability to accumulate squalene” (Bioorg Med Chem, 2009).
Values after ≈ are worked out from the molar mass of the structure shown.

Tests used:
Trypanosoma cruzi [1] = experiment: Antitrypanosomal activity against Trypanosoma cruzi tulahuen 2 after 5 days; assay type: functional; conditions: tulahuen 2, 120 h, read-out: ID50 (the source's name)
Trypanosoma cruzi [2] = experiment: Increase in squalene biosynthesis in Trypanosoma cruzi tulahuen 2 epimastigotes at ID50 concentration per 8 x 10^6 cells/ml after 120 mins by HPLC analysis (Rvb=0.6 to 2.1 ug/ml); assay type: functional
Trypanosoma cruzi [3] = experiment: Antitrypanosomal activity against Trypanosoma cruzi CL Brener after 5 days; assay type: functional; conditions: 120 h, read-out: ID50 (the source's name)
Trypanosoma cruzi [4] = experiment: Decrease in ergosterol biosynthesis in Trypanosoma cruzi tulahuen 2 epimastigotes at ID50 concentration per 8 x 10^6 cells/ml after 120 mins by HPLC analysis (Rvb=6.8 +/- 0.5 ug/ml); assay type: functional
[5] = Selectivity index, ratio of IC50 for mouse J774 cells to ID50 for Trypanosoma cruzi tulahuen 2; assay type: toxicity, cell-based; conditions: J774 cells versus Trypanosoma cruzi Tulahuen 2, read-out: Selectivity Index
[6] = tested on: Trichophyton mentagrophytes; experiment: Antifungal activity against Trichophyton mentagrophytes ATCC 9972 after 48 hrs by broth microdilution technique; assay type: functional; conditions: ATCC 9972, 48 h
[7] = Cytotoxicity against mouse J774 cells after 48 hrs by MTT assay; assay type: cell-based; conditions: read-out: ID50
Aspergillus fumigatus = experiment: Antifungal activity against Aspergillus fumigatus ATCC 26934 after 48 hrs by broth microdilution technique; assay type: functional; conditions: ATCC 26934, 48 h
Trichophyton rubrum = experiment: Antifungal activity against Trichophyton rubrum C113 after 48 hrs by broth microdilution technique; assay type: functional; conditions: C113, 48 h
Saccharomyces cerevisiae = experiment: Antifungal activity against Saccharomyces cerevisiae ATCC 9763 after 48 hrs by broth microdilution technique; assay type: functional; conditions: ATCC 9763, 48 h
Aspergillus flavus = experiment: Antifungal activity against Aspergillus flavus ATCC 9170 after 48 hrs by broth microdilution technique; assay type: functional; conditions: ATCC 9170, 48 h
Candida albicans = experiment: Antifungal activity against Candida albicans ATCC 10231 after 48 hrs by broth microdilution technique; assay type: functional; conditions: ATCC 10231, 48 h
Nannizzia gypsea = experiment: Antifungal activity against Microsporum gypseum C 115 after 48 hrs by broth microdilution technique; assay type: functional; conditions: C 115, 48 h
Aspergillus niger = experiment: Antifungal activity against Aspergillus niger ATCC 9029 after 48 hrs by broth microdilution technique; assay type: functional; conditions: ATCC 9029, 48 h
Cryptococcus neoformans = experiment: Antifungal activity against Cryptococcus neoformans ATCC 32264 after 48 hrs by broth microdilution technique; assay type: functional; conditions: ATCC 32264, 48 h
Candida tropicalis = experiment: Antifungal activity against Candida tropicalis C131-2000 after 48 hrs by broth microdilution technique; assay type: functional; conditions: C131-2000, 48 h
Trypanosoma cruzi [8] = experiment: Ratio of ID50 for drug to ID50 for nifurtimox against Trypanosoma cruzi tulahuen 2 after 5 days; assay type: functional

IC50 (Trypanosoma cruzi [1])	IC50 (Trypanosoma cruzi [3])	SMILES	Activity (Trypanosoma cruzi [2])	Activity (Trypanosoma cruzi [4])	selectivity ratio [5]	MIC [6]	CC50 at 48 h [7]	MIC (Aspergillus fumigatus)	MIC (Trichophyton rubrum)	MIC (Saccharomyces cerevisiae)	MIC (Aspergillus flavus)	MIC (Candida albicans)	MIC (Nannizzia gypsea)	MIC (Aspergillus niger)	MIC (Cryptococcus neoformans)	MIC (Candida tropicalis)	Ratio (Trypanosoma cruzi [8])
> 25 µM		O=C(/C=C/c1ccco1)N1CCN(C/C=C/c2ccccc2)CC1	0.6 µg/mL														
5 µM		O=C(/C=C/c1ccc([N+](=O)[O-])o1)NCCO	0.6 µg/mL														
8.2 µM	6.4 µM	C=CCNC(=S)N/N=C/C=C/c1ccc([N+](=O)[O-])o1	15.9 µg/mL	5.5 µg/mL	24.4	> 250 µg/mL	200 µM	> 250 µg/mL	> 250 µg/mL	> 250 µg/mL	> 250 µg/mL	> 250 µg/mL	> 250 µg/mL	> 250 µg/mL	> 250 µg/mL	> 250 µg/mL	
1 µM		O=C(/C=C/c1ccc([N+](=O)[O-])o1)N1CCN(C/C=C/c2ccccc2)CC1	0.6 µg/mL														7
		C[C@@H]1[C@H](O)[C@@H](C)/C=C/C=C/C=C/C=C/C=C/C=C/C=C/[C@H](O[C@@H]2O[C@H](C)[C@@H](O)[C@H](N)[C@@H]2O)C[C@@H]2O[C@](O)(C[C@@H](O)C[C@@H](O)[C@H](O)CC[C@@H](O)C[C@@H](O)CC(=O)O[C@H]1C)C[C@H](O)[C@H]2C(=O)O [AMPHOTERICIN B]				0.025 µg/mL (≈ 0.0271 µM)		0.5 µg/mL (≈ 0.541 µM)	0.025 µg/mL (≈ 0.0271 µM)	0.5 µg/mL (≈ 0.541 µM)	0.25 µg/mL (≈ 0.271 µM)	0.5 µg/mL (≈ 0.541 µM)	0.05 µg/mL (≈ 0.0541 µM)	0.125 µg/mL (≈ 0.135 µM)	0.25 µg/mL (≈ 0.271 µM)	0.5 µg/mL (≈ 0.541 µM)	
		CC(=O)N1CCN(c2ccc(OCC3COC(Cn4ccnc4)(c4ccc(Cl)cc4Cl)O3)cc2)CC1 (configuration not stated) [KETOCONAZOLE]			< 10	0.025 µg/mL (≈ 0.047 µM)	< 100 µM	0.78 µg/mL (≈ 1.47 µM)	0.01 µg/mL (≈ 0.0188 µM)	3.12 µg/mL (≈ 5.87 µM)	1.56 µg/mL (≈ 2.94 µM)	1.56 µg/mL (≈ 2.94 µM)	0.04 µg/mL (≈ 0.0753 µM)	0.78 µg/mL (≈ 1.47 µM)	0.39 µg/mL (≈ 0.734 µM)	1.56 µg/mL (≈ 2.94 µM)	
		CC1CS(=O)(=O)CCN1/N=C/c1ccc([N+](=O)[O-])o1 (configuration not stated) [NIFURTIMOX]	0.6 µg/mL		41		316 µM										
		CN(C/C=C/C#CC(C)(C)C)Cc1cccc2ccccc12 [TERBINAFINE]	12 µg/mL	2.7 µg/mL	19.9	0.075 µg/mL (≈ 0.257 µM)	339 µM	0.5 µg/mL (≈ 1.72 µM)	0.075 µg/mL (≈ 0.257 µM)	0.5 µg/mL (≈ 1.72 µM)	0.5 µg/mL (≈ 1.72 µM)	0.78 µg/mL (≈ 2.68 µM)	0.125 µg/mL (≈ 0.429 µM)	0.5 µg/mL (≈ 1.72 µM)	0.25 µg/mL (≈ 0.858 µM)	1.56 µg/mL (≈ 5.35 µM)	
